The assay deals with T1, recombinant human Meningioma Expressed Antigen 5 (MGEA5), also referred to as O-GlcNAcase (OGA) (Homo sapiens, UniProt O60502).
T1 construct: Full length OGA enzyme was purchased at OriGene (cat #TP322411); purchased OriGene TP322411
T1 sequence (O60502 1-916): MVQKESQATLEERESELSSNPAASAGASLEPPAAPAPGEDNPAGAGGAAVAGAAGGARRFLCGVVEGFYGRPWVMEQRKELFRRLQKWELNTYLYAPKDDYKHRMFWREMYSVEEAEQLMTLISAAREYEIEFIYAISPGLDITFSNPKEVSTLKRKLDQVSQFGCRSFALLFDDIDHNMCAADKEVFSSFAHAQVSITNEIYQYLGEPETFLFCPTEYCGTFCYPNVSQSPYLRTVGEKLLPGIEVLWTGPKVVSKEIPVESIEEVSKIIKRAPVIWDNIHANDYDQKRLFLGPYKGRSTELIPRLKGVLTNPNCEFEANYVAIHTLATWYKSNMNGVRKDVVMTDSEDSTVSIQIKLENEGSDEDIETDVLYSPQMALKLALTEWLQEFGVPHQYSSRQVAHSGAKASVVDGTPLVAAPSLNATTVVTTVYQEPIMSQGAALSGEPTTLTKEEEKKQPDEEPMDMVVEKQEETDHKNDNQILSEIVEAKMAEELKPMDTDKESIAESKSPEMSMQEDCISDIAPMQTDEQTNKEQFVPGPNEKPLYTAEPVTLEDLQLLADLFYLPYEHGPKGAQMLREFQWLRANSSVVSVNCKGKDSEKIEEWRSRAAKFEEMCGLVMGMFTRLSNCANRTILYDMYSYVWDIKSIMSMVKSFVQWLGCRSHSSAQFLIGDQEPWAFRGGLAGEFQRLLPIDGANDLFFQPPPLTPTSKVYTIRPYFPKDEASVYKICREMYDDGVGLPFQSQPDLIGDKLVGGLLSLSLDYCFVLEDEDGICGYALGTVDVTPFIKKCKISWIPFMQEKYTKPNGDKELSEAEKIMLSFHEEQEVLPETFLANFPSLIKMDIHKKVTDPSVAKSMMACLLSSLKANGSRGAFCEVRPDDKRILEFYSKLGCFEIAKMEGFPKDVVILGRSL
Kind of assay: OGA biochemical assay (inhibition of FM-GlcNAc hydrolysis, fluorescence). The settings on record: for Emax: read-out: Enzymatic Emax (%); for IC50: read-out: Enzymatic hOGA, pIC50 (converted). The essentials:
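Full-length OGA at 2 nM was pre-incubated 60 min at room temperature with compound, then FM-GlcNAc at 100 uM final was added in citrate/phosphate buffer pH 7.2 with 0.005% Tween-20. After 6 h at room temperature, carbonate pH 11.0 stopped the reaction. Fluorescence read at 485/538 nm; IC50 and Hill coefficient from curve fit against no-inhibitor and saturating-standard controls.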

What is called Emax is the size of the effect at its maximum, as opposed to the concentration needed. For the compound `Cc1cc(OC2CCN([C@@H](C)c3nc4nc(C)sc4cc3F)CC2)cc(C)n1` (single isomer, unassigned) [Compound 83], the Emax came out at 101% and the IC50 was 5.01 nM.

On to `Cc1cc(OC2CCN([C@H](C)c3nc4c(cc3F)CCO4)CC2)cc(C)n1` (single isomer, unassigned) [Compound 144], for which the Emax amounted to 97% and the IC50 was 3.16 nM.

With `Cc1cc(OC2CCN([C@H](C)c3nc4c(cc3F)OCCO4)CC2)cc(C)n1` (single isomer, unassigned) [Compound 148], the Emax stood at 98% and the IC50 was 6.31 nM.

Regarding `Cc1ncc(OC2CCN(C(C)c3nc4c(cc3F)CCO4)CC2)cn1` (centres unmarked) [Compound 95], the Emax was 96% and the IC50 was 5.01 nM.
